Data reported in ChEMBL document CHEMBL4806959, “Antagonistic peptides for frizzled-1 and frizzled-2” (2015).
Activity calls are given as the source filed them. The rule behind the calls is not given here. Residues, ends and D or L forms follow the SMILES beside them.

Columns and labels:
[1] = molecular target: Frizzled-1 (Rattus norvegicus) (UniProt Q08463); experiment: Antagonist activity at Wnt3a-stimulated rat frizzled-1 expressed in CHO cells up to 10 uM incubated for 24 hrs by luciferase reporter gene assay; assay type: cell-based; conditions: dose microM <=10, time 24.0 hrs
[2] = molecular target: Frizzled-2 (Rattus norvegicus) (UniProt Q08464); experiment: Antagonist activity at Wnt3a-stimulated rat frizzled-2 expressed in CHO cells up to 10 uM incubated for 24 hrs by luciferase reporter gene assay; assay type: cell-based; conditions: dose microM <=10, time 24.0 hrs
[3] = molecular target: Frizzled-1 (Rattus norvegicus) (UniProt Q08463); experiment: Antagonist activity at Wnt3a-stimulated rat frizzled-1 expressed in African green monkey COS7 cells up to 10 uM incubated for 24 hrs by luciferase reporter gene assay; assay type: cell-based; conditions: dose microM <=10, time 24.0 hrs
[4] = molecular target: Frizzled-2 (Rattus norvegicus) (UniProt Q08464); experiment: Antagonist activity at Wnt3a-stimulated rat frizzled-2 expressed in African green monkey COS7 cells up to 10 uM incubated for 24 hrs by luciferase reporter gene assay; assay type: cell-based; conditions: dose microM <=10, time 24.0 hrs
[5] = molecular target: Frizzled-2 (Homo sapiens, UniProt Q14332); experiment: Antagonist activity at Wnt3a-stimulated frizzled-2 (unknown origin) expressed in human HEK293superTOP flash cells at 10 nM incubated for 24 hrs by luciferase reporter gene assay; assay type: functional, cell-based; conditions: HEK293
[6] = molecular target: Frizzled-1 (Homo sapiens) (UniProt Q9UP38); experiment: Antagonist activity at Wnt3a-stimulated frizzled-1 (unknown origin) expressed in human HEK293superTOP flash cells at 10 nM incubated for 24 hrs by luciferase reporter gene assay; assay type: functional, cell-based; conditions: HEK293
Chain of Frizzled-1 (Homo sapiens) (Q9UP38 70-647 limits assumed): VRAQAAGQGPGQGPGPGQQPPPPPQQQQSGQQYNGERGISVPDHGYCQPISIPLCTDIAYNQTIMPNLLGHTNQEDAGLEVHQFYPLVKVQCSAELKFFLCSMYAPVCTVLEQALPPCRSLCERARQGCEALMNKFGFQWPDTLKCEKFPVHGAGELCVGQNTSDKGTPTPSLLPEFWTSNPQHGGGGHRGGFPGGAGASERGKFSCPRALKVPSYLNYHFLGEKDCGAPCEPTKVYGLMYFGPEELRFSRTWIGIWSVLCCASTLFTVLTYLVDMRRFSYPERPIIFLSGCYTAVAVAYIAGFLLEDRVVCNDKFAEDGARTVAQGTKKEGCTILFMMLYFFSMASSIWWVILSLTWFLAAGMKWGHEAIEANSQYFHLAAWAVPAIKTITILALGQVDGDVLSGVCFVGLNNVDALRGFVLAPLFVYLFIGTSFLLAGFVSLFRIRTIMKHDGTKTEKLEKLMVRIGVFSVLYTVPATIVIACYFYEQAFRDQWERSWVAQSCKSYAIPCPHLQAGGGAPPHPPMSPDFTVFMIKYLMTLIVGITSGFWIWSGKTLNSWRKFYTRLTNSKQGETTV

Chain of Frizzled-1 (Rattus norvegicus) (Q08463 whole entry): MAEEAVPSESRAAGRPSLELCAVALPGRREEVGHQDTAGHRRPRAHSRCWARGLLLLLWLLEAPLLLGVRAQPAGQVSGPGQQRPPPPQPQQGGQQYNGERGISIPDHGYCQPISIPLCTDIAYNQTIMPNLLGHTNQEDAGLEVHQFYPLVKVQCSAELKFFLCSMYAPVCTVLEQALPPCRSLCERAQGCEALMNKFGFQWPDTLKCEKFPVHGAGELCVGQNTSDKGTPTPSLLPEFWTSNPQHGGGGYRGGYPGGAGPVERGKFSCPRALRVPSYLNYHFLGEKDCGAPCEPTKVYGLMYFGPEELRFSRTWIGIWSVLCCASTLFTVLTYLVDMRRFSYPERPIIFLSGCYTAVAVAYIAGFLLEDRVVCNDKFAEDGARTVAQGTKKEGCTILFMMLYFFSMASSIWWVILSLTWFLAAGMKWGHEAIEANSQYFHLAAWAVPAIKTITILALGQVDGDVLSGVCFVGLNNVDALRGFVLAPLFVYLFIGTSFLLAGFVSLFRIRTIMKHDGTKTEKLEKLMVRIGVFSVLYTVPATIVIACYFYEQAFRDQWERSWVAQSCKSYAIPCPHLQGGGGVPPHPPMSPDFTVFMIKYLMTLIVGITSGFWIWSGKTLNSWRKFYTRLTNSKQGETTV
Chain of Frizzled-2 (Rattus norvegicus) (Q08464 29-570 limits assumed): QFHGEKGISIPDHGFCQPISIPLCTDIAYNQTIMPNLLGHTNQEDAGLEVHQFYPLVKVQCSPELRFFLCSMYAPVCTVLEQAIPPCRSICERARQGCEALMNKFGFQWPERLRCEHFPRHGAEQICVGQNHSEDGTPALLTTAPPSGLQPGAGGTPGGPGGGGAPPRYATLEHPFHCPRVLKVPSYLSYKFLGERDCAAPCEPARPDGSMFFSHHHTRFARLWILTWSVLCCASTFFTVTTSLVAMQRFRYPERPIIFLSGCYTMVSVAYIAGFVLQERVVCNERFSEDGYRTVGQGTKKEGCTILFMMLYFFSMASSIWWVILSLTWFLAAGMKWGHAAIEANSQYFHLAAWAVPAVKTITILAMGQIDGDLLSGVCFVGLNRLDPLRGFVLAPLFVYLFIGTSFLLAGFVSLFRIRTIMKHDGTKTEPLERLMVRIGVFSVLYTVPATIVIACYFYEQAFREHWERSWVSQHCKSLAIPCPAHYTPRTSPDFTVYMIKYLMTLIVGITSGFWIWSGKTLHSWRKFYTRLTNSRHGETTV
Chain of Frizzled-2 (Q14332 24-565 limits assumed): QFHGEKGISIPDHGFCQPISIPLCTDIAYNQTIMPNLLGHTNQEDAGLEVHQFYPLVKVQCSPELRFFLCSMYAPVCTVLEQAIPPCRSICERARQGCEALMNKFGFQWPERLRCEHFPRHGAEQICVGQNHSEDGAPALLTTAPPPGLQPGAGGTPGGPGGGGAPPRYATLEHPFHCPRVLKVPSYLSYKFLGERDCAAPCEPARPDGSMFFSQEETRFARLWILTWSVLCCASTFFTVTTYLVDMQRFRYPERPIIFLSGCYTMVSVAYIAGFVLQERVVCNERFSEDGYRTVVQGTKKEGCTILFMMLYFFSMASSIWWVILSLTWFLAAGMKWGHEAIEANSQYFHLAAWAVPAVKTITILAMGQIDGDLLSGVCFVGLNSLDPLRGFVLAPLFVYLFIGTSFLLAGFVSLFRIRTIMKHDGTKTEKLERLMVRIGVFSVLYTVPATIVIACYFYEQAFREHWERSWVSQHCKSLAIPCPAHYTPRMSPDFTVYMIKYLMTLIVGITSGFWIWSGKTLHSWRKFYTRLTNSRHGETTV

Compound | inhibition [1] | inhibition [2] | inhibition [3] | inhibition [4] | inhibition [5] | inhibition [6]
CSCC[C@H](NC(=O)CNC(=O)[C@H](CCC(=O)O)NC(=O)[C@H](CO)NC(=O)[C@@H](NC(=O)[C@H](C)NC(=O)[C@H](CC(N)=O)NC(=O)[C@H](CS)NC(C)=O)[C@@H](C)O)C(=O)N[C@@H](CC(=O)O)C(=O)NCC(=O)N[C@@H](CS)C(=O)N[C@@H](CCC(=O)O)C(=O)N[C@@H](CC(C)C)C(N)=O (Ac-CNATSEGMDGCEL-NH2) | inactive | inactive | inactive | inactive | inactive | inactive
CSCC[C@H](NC(=O)[C@H](C)NC(=O)[C@H](CCC(=O)O)NC(=O)[C@H](CO)NC(=O)[C@H](C)NC(=O)[C@H](CCCCN)NC(=O)[C@H](CC(N)=O)NC(=O)[C@H](CS)NC(C)=O)C(=O)N[C@@H](C)C(=O)NCC(=O)N[C@@H](CS)C(=O)N[C@@H](CCC(=O)O)C(=O)N[C@@H](CC(C)C)C(N)=O (Ac-CNKASEAMAGCEL-NH2) | inactive | inactive | inactive | inactive | inactive | inactive
CSCC[C@H](NC(=O)CNC(=O)[C@H](C)NC(=O)[C@H](CO)NC(=O)[C@@H](NC(=O)[C@H](CCCCN)NC(=O)[C@H](CC(N)=O)NC(=O)[C@H](CS)NC(C)=O)[C@@H](C)O)C(=O)N[C@@H](CC(=O)O)C(=O)NCC(=O)N[C@@H](CS)C(=O)N[C@@H](CCC(=O)O)C(=O)N[C@@H](CC(C)C)C(N)=O (Ac-CNKTSAGMDGCEL-NH2) | inactive | inactive | inactive | inactive | inactive | inactive
CSCC[C@H](NC(=O)[C@H](C)NC(=O)[C@H](CCC(=O)O)NC(=O)[C@H](CO)NC(=O)[C@@H](NC(=O)[C@H](CCCCN)NC(=O)[C@H](CC(N)=O)NC(=O)[C@H](CS)NC(C)=O)[C@@H](C)O)C(=O)N[C@@H](CC(=O)O)C(=O)NCC(=O)N[C@@H](CS)C(=O)N[C@@H](CCC(=O)O)C(=O)N[C@@H](CC(C)C)C(N)=O (Ac-CNKTSEAMDGCEL-NH2) | inactive | inactive | inactive | inactive | inactive | inactive
CSCC[C@H](NC(=O)CNC(=O)[C@H](CCC(=O)O)NC(=O)[C@H](CO)NC(=O)[C@@H](NC(=O)[C@H](CCCCN)NC(=O)[C@H](CC(N)=O)NC(=O)[C@H](CS)NC(C)=O)[C@@H](C)O)C(=O)N[C@@H](C)C(=O)NCC(=O)N[C@@H](CS)C(=O)N[C@@H](CCC(=O)O)C(=O)N[C@@H](CC(C)C)C(N)=O (Ac-CNKTSEGMAGCEL-NH2) | inactive | inactive | inactive | inactive | inactive | inactive

Now from value to compound:

inhibition [1] | inhibition [2] | inhibition [3] | inhibition [4] | inhibition [5] | inhibition [6] | Compound
inactive | inactive | inactive | inactive | inactive | inactive | CSCC[C@H](NC(=O)CNC(=O)[C@H](CCC(=O)O)NC(=O)[C@H](CO)NC(=O)[C@@H](NC(=O)[C@H](CCCCN)NC(=O)[C@H](CC(N)=O)NC(=O)[C@H](C)NC(C)=O)[C@@H](C)O)C(=O)N[C@@H](CC(=O)O)C(=O)NCC(=O)N[C@@H](CS)C(=O)N[C@@H](CCC(=O)O)C(=O)N[C@@H](CC(C)C)C(N)=O (Ac-ANKTSEGMDGCEL-NH2)
inactive | inactive | inactive | inactive | inactive | inactive | CSCC[C@H](NC(=O)CNC(=O)[C@H](CCC(=O)O)NC(=O)[C@H](CO)NC(=O)[C@@H](NC(=O)[C@H](CCCCN)NC(=O)[C@H](C)NC(=O)[C@H](CS)NC(C)=O)[C@@H](C)O)C(=O)N[C@@H](CC(=O)O)C(=O)NCC(=O)N[C@@H](CS)C(=O)N[C@@H](CCC(=O)O)C(=O)N[C@@H](CC(C)C)C(N)=O (Ac-CAKTSEGMDGCEL-NH2)
inactive | inactive | inactive | inactive | inactive | inactive | CSCC[C@H](NC(=O)CNC(=O)[C@H](CCC(=O)O)NC(=O)[C@H](CO)NC(=O)[C@H](C)NC(=O)[C@H](CCCCN)NC(=O)[C@H](CC(N)=O)NC(=O)[C@H](CS)NC(C)=O)C(=O)N[C@@H](CC(=O)O)C(=O)NCC(=O)N[C@@H](CS)C(=O)N[C@@H](CCC(=O)O)C(=O)N[C@@H](CC(C)C)C(N)=O (Ac-CNKASEGMDGCEL-NH2)
inactive | inactive | inactive | inactive | inactive | inactive | CSCC[C@H](NC(=O)CNC(=O)[C@H](CCC(=O)O)NC(=O)[C@H](C)NC(=O)[C@@H](NC(=O)[C@H](CCCCN)NC(=O)[C@H](CC(N)=O)NC(=O)[C@H](CS)NC(C)=O)[C@@H](C)O)C(=O)N[C@@H](CC(=O)O)C(=O)NCC(=O)N[C@@H](CS)C(=O)N[C@@H](CCC(=O)O)C(=O)N[C@@H](CC(C)C)C(N)=O (Ac-CNKTAEGMDGCEL-NH2)
inactive | inactive | inactive | inactive | inactive | inactive | CC(=O)N[C@@H](CS)C(=O)N[C@@H](CC(N)=O)C(=O)N[C@@H](CCCCN)C(=O)N[C@H](C(=O)N[C@@H](CO)C(=O)N[C@@H](CCC(=O)O)C(=O)NCC(=O)N[C@@H](C)C(=O)N[C@@H](CC(=O)O)C(=O)NCC(=O)N[C@@H](CS)C(=O)N[C@@H](CCC(=O)O)C(=O)N[C@@H](CC(C)C)C(N)=O)[C@@H](C)O (Ac-CNKTSEGADGCEL-NH2)
inactive | inactive | inactive | inactive | inactive | inactive | CSCC[C@H](NC(=O)CNC(=O)[C@H](CCC(=O)O)NC(=O)[C@H](CO)NC(=O)[C@@H](NC(=O)[C@H](CCCCN)NC(=O)[C@H](CC(N)=O)NC(=O)[C@H](CS)NC(C)=O)[C@@H](C)O)C(=O)N[C@@H](CC(=O)O)C(=O)N[C@@H](C)C(=O)N[C@@H](CS)C(=O)N[C@@H](CCC(=O)O)C(=O)N[C@@H](CC(C)C)C(N)=O (Ac-CNKTSEGMDACEL-NH2)
inactive | inactive | inactive | inactive | inactive | inactive | CSCC[C@H](NC(=O)CNC(=O)[C@H](CCC(=O)O)NC(=O)[C@H](CO)NC(=O)[C@@H](NC(=O)[C@H](CCCCN)NC(=O)[C@H](CC(N)=O)NC(=O)[C@H](CS)NC(C)=O)[C@@H](C)O)C(=O)N[C@@H](CC(=O)O)C(=O)NCC(=O)N[C@@H](C)C(=O)N[C@@H](CCC(=O)O)C(=O)N[C@@H](CC(C)C)C(N)=O (Ac-CNKTSEGMDGAEL-NH2)
